Reference: publication PMC10381170, “1,3,4-Oxadiazole and 1,3,4-Thiadiazole Nortopsentin Derivatives against Pancreatic Ductal Adenocarcinoma: Synthesis, Cytotoxic Activity, and Inhibition of CDK1” (Marine Drugs, 2023)
Each block holds one molecule with its values, some of them ahead of it.

What was measured:
[1] = system: Panc-1 cells; experiment: SRB antiproliferative assay, Panc-1; type: cell-based, human; conditions: for Cell growth percentage: Panc-1, 10 μM, 72 h exposure; for IC50: Homo sapiens, Panc-1, 72 h, mean ± SEM, read-out: Half-maximal inhibitory concentration (IC50)
Method: (§1) The cytotoxic activity of the nortopsentin derivatives 3b, 3e, 4c, 5b, and 6c on pancreatic cancer cells (BxPC-3, Panc-1, Suit-2, Capan-1, PaTu-T, primary PDAC-3 and resistant Panc-1-GR cells) was determined by the sulforhodamine B (SRB) chemosensitivity assay, as described previously. Cells were plated in 96-well flat-bottom plates at final concentrations ranging from 3000–5000 cells/well in 100 µL of medium. After a 24 h pre-incubation period, cells were treated with the compounds at nine screening concentrations (from 0.1 μM to 40 μM) in triplicate and incubated at 37 °C for 72 h. After the treatment, cells were fixed with 25 µL of cold 50% trichloroacetic acid (TCA) for each well and incubated at 4 °C for 1 h. Afterwards, plates were washed five times with demi-water and air-dried overnight. Then, the plates were stained with 50 µL of 0.4% SRB solution in 1% acetic acid for 15 min. The excess stain was rinsed off by placing the plates under running 1% acetic acid and allowed to dry at room temperature overnight. SRB staining was rinsed with 150 µL tris(hydroxymethyl)aminomethane solution pH = 8.8 (TRIS-base), and the optical density (OD) was read at 492 nm. Each assay was performed in triplicate and assays were repeated at least three times. The comparison of the average optical density of the growth in control wells with that in the sample wells allowed the estimation of the percentage of cell growth, using the following equation: % Cell Growth = (mean ODcompound − mean ODday zero plate)/(mean ODcells − mean ODday zero plate) × 100
(§2) The results obtained were adjusted by the day zero plate (wells containing cells growing for only 24 h) and normalized by the control cells (wells with untreated cells) to obtain the rate of viable cells.

[2] = system: Capan-1 cells; experiment: SRB antiproliferative assay, Capan-1; type: cell-based, human; conditions: for Cell growth percentage: Capan-1, 10 μM, 72 h exposure; for IC50: Homo sapiens, Capan-1, 72 h, mean ± SEM, read-out: Half-maximal inhibitory concentration (IC50)
Method: as §1, §2

[3] = system: BxPC-3 cells; experiment: SRB antiproliferative assay, BxPC-3; type: cell-based, human; conditions: for Cell growth percentage: BxPC-3, 10 μM, 72 h exposure; for IC50: Homo sapiens, BxPC-3, 72 h, mean ± SEM, read-out: Half-maximal inhibitory concentration (IC50)
Method: as §1, §2

[4] = system: PDAC-3 cells; experiment: SRB antiproliferative assay, primary culture PDAC-3; type: cell-based, human; conditions: for IC50: Homo sapiens, PDAC-3, 72 h, mean ± SEM, read-out: Half-maximal inhibitory concentration (IC50); for Cell growth percentage: PDAC-3, 10 μM, 72 h exposure
Method: as §1, §2

[5] = system: Suit-2 cells; experiment: SRB antiproliferative assay, Suit-2; type: cell-based, human; conditions: for IC50: Homo sapiens, Suit-2, 72 h, mean ± SEM, read-out: Half-maximal inhibitory concentration (IC50); for Cell growth percentage: Suit-2, 10 μM, 72 h exposure
Method: as §1, §2

[6] = system: PaTu-T cells; experiment: SRB antiproliferative assay, PaTu-T; type: cell-based, human; conditions: for Cell growth percentage: 10 μM, 72 h exposure; for IC50: Homo sapiens, 72 h, mean ± SEM, read-out: Half-maximal inhibitory concentration (IC50)
Method: as §1, §2

[7] = system: BxPC-3 cells; experiment: Scratch wound-healing assay, BxPC-3; type: cell-based, human; conditions: BxPC-3, 8 h, 4 × IC50, untreated = 100% wound closure
Method: Cell migration was assessed using a wound-healing assay, as described previously. A total of 5 × 10^4 cells/well were seeded in a 96-well plate, to form a confluent monolayer. Scratches were created in confluent cell layers using the sterile scratch tool. The detached cells following scratch induction were removed and new medium was added to the wells. Cells were next treated with compounds 3b and 5b at a concentration of 4 × IC50. Cells growing in a complete medium were maintained at 37 °C with a supply of 5% CO2/95% air atmosphere and 100% relative humidity. The progress of wound closure was observed and documented at various time points (0th, 4th, 8th, 20th, and 24th h) using phase-contrast microscopy. Pictures of the plates were taken using the Universal Grab 6.3 software (DCILabs) from a computer connected to a Leica microscope with a JAI TMC-1327 camera.
The percentage of migration was calculated using the following equation:%Migration = (Width of the wound at T = 0 − Width of the wound at T = X)/(Width of the wound at T = 0) × 100

[8] = system: PDAC cells; experiment: SRB antiproliferative assay, whole PDAC panel; type: cell-based; conditions: Homo sapiens; seven PDAC models, 72 h; read-out: IC50 values, range over the PDAC cell panel
Method: as §1, with “The comparison of the average optical density of the growth in control wells with that in the sample wells allowed the estimation of the percentage of cell growth, using the following equation: % Cell Growth = (mean ODcompound − mean ODday zero plate)/(mean ODcells − mean ODday zero plate) × 100” left out

[9] = system: Panc-1-GR cells; experiment: SRB antiproliferative assay, gemcitabine-resistant Panc-1-GR; type: cell-based, human; conditions: for Cell growth percentage: 10 μM, 72 h exposure; for IC50: Homo sapiens, 72 h, mean ± SEM, read-out: Half-maximal inhibitory concentration (IC50)
Method: as §1, §2

Structure (SMILES): Cn1cc(-c2nnc(-c3cn(C)c4ncc(Br)cc34)o2)c2cc(Br)ccc21 [3f, 5-bromo-3-[5-(5-bromo-1-methyl-1H-indol-3-yl)-1,3,4-oxadiazol-2-yl]-1-methyl-7-azaindole]
melting point: 275 °C

Structure (SMILES): Cn1cc(-c2nnc(-c3cn(C)c4ncc(Br)cc34)o2)c2cc(F)ccc21 [3g, 5-bromo-3-[5-(5-fluoro-1-methyl-1H-indol-3-yl)-1,3,4-oxadiazol-2-yl]-1-methyl-7-azaindole]
melting point: 310 °C

Structure (SMILES): c1ccc(-c2nnc(-c3c[nH]c4ncccc34)o2)cc1 [4a, 3-(5-phenyl-1,3,4-oxadiazol-2-yl)-7-azaindole]
melting point: 272 °C

Structure (SMILES): Cn1cc(-c2nnc(-c3c[nH]c4ncccc34)o2)c2ccccc21 [3a, 3-[5-(1-methyl-1H-indol-3-yl)-1,3,4-oxadiazol-2-yl]-7-azaindole]
melting point: 302 °C

Structure (SMILES): Cn1cc(-c2nnc(-c3cn(C)c4ncccc34)o2)c2cc(F)ccc21 [3c, 3-[5-(5-fluoro-1-methyl-1H-indol-3-yl)-1,3,4-oxadiazol-2-yl]-1-methyl-7-azaindole]
melting point: 268 °C

Structure (SMILES): Cn1cc(-c2nnc(-c3cn(C)c4ncc(Br)cc34)o2)c2ccccc21 [3e, 5-bromo-1-methyl-3-[5-(1-methyl-1H-indol-3-yl)-1,3,4-oxadiazol-2-yl]-7-azaindole]
Cell growth percentage [1]: 61.96% | Cell growth percentage [2]: 59.84% | Cell growth percentage [3]: 58.64% | IC50 [4]: 23 ± 0.06 µM | IC50 [5]: 9.4 ± 4.3 µM | Cell growth percentage [5]: 54.94% | Cell growth percentage [6]: 72.33% | melting point: 244 °C

Structure (SMILES): Brc1cnc2[nH]cc(-c3nnc(-c4ccccc4)o3)c2c1 [4c, 5-bromo-3-(5-phenyl-1,3,4-oxadiazol-2-yl)-7-azaindole]
IC50 [1]: 13.4 ± 3.2 µM | Cell growth percentage [1]: 74.33% | Cell growth percentage [2]: 75.17% | IC50 [2]: 10.8 ± 0.67 µM | Cell growth percentage [3]: 21.13% | IC50 [3]: 3.3 ± 2.4 µM | Cell growth percentage [4]: 96.60% | Cell growth percentage [5]: 60.18% | Cell growth percentage [6]: 31.22% | IC50 [6]: 9.7 ± 0.17 µM | melting point: 275 °C | Cell growth percentage [9]: 98.62% | IC50 [9]: 10.8 ± 1.4 µM

Structure (SMILES): Cn1cc(-c2nnc(-c3cn(C)c4ncccc34)o2)c2cc(Br)ccc21 [3d, 3-[5-(5-bromo-1-methyl-1H-indol-3-yl)-1,3,4-oxadiazol-2-yl]-1-methyl-7-azaindole]
melting point: 277 °C

Structure (SMILES): Cn1cc(-c2nnc(-c3ccccc3)o2)c2cc(Br)cnc21 [4d, 5-bromo-1-methyl-3-(5-phenyl-1,3,4-oxadiazol-2-yl)-7-azaindole]
melting point: 236 °C

Structure (SMILES): Cn1cc(-c2nnc(-c3ccccc3)o2)c2cccnc21 [4b, 1-methyl-3-(5-phenyl-1,3,4-oxadiazol-2-yl)-7-azaindole]
melting point: 201 °C

Continued, in another order:

melting point: 290 °C
Structure (SMILES): Cn1cc(-c2nnc(-c3cn(C)c4ncc(Br)cc34)s2)c2cc(F)ccc21 [5h, 5-bromo-3-[5-(5-fluoro-1-methyl-1H-indol-3-yl)-1,3,4-thiadiazol-2-yl]-1-methyl-7-azaindole]

melting point: 188 °C
Structure (SMILES): Cn1cc(-c2nnc(-c3ccccc3)s2)c2cc(Br)cnc21 [6d, 5-bromo-1-methyl-3-(5-phenyl-1,3,4-thiadiazol-2-yl)-7-azaindole]

melting point: 292 °C
Structure (SMILES): Cn1cc(-c2nnc(-c3cn(C)c4ncccc34)s2)c2cc(Br)ccc21 [5c, 3-[5-(5-bromo-1-methyl-1H-indol-3-yl)-1,3,4-thiadiazol-2-yl]-1-methyl-7-azaindole]

IC50 [1]: 3.5 ± 0.01 µM | IC50 [3]: 2.7 ± 0.68 µM | melting point: 244 °C | IC50 [9]: 9.8 ± 0.05 µM
Structure (SMILES): Cn1cc(-c2nnc(-c3cn(C)c4ncccc34)s2)c2ccccc21 [5b, 1-methyl-3-[5-(1-methyl-1H-indol-3-yl)-1,3,4-thiadiazol-2-yl]-7-azaindole]
Cell growth percentage [1]: 15.68% | Cell growth percentage [2]: 30.86% | IC50 [2]: 3.3 ± 0.61 µM | Cell growth percentage [3]: 32.88% | IC50 [4]: 10.6 ± 0.04 µM | Cell growth percentage [4]: 55.90% | IC50 [5]: 1.9 ± 0.27 µM | Cell growth percentage [5]: 19.46% | Cell growth percentage [6]: 27.73% | IC50 [6]: 3.4 ± 0.06 µM | percentage of cells migrating [7]: 66% | IC50 [8]: 1.9 to 10.6 µM | Cell growth percentage [9]: 40.65%

melting point: 240 °C
Structure (SMILES): Cn1cc(-c2nnc(-c3cn(C)c4ncccc34)s2)c2cc(F)ccc21 [5d, 3-[5-(5-fluoro-1-methyl-1H-indol-3-yl)-1,3,4-thiadiazol-2-yl]-1-methyl-7-azaindole]

IC50 [1]: 11.5 ± 1.2 µM | melting point: 308 °C
Structure (SMILES): Brc1cnc2[nH]cc(-c3nnc(-c4ccccc4)s3)c2c1 [6c, 5-bromo-3-(5-phenyl-1,3,4-thiadiazol-2-yl)-7-azaindole]
Cell growth percentage [1]: 83.68% | Cell growth percentage [2]: 76.76% | IC50 [2]: 12.6 ± 1.3 µM | Cell growth percentage [3]: 54.59% | Cell growth percentage [4]: 87.84% | IC50 [5]: 4.1 ± 0.9 µM | Cell growth percentage [5]: 29.80% | Cell growth percentage [6]: 56.09% | IC50 [6]: 3.8 ± 1.8 µM

melting point: 200 °C
Structure (SMILES): COc1ccc2c(c1)c(-c1nnc(-c3cn(C)c4ncccc34)s1)cn2C [5e, 3-[5-(5-methoxy-1-methyl-1H-indol-3-yl)-1,3,4-thiadiazol-2-yl]-1-methyl-7-azaindole]

melting point: 246 °C
Structure (SMILES): Cn1cc(-c2nnc(-c3c[nH]c4ncccc34)s2)c2ccccc21 [5a, 3-[5-(1-methyl-1H-indol-3-yl)-1,3,4-thiadiazol-2-yl]-7-azaindole]

melting point: 275 °C
Structure (SMILES): Cn1cc(-c2nnc(-c3cn(C)c4ncc(Br)cc34)s2)c2cc(Br)ccc21 [5g, 5-bromo-3-[5-(5-bromo-1-methyl-1H-indol-3-yl)-1,3,4-thiadiazol-2-yl]-1-methyl-7-azaindole]

melting point: 191 °C
Structure (SMILES): Cn1cc(-c2nnc(-c3ccccc3)s2)c2cccnc21 [6b, 1-methyl-3-(5-phenyl-1,3,4-thiadiazol-2-yl)-7-azaindole]

melting point: 249 °C
Structure (SMILES): c1ccc(-c2nnc(-c3c[nH]c4ncccc34)s2)cc1 [6a, 3-(5-phenyl-1,3,4-thiadiazol-2-yl)-7-azaindole]

melting point: 233 °C
Structure (SMILES): Cn1cc(-c2nnc(-c3cn(C)c4ncc(Br)cc34)s2)c2ccccc21 [5f, 5-bromo-1-methyl-3-[5-(1-methyl-1H-indol-3-yl)-1,3,4-thiadiazol-2-yl]-7-azaindole]
